The test has as its target T1, GVIA iPLA2 (Homo sapiens, UniProt O60733).
T1 sequence (O60733 1-806): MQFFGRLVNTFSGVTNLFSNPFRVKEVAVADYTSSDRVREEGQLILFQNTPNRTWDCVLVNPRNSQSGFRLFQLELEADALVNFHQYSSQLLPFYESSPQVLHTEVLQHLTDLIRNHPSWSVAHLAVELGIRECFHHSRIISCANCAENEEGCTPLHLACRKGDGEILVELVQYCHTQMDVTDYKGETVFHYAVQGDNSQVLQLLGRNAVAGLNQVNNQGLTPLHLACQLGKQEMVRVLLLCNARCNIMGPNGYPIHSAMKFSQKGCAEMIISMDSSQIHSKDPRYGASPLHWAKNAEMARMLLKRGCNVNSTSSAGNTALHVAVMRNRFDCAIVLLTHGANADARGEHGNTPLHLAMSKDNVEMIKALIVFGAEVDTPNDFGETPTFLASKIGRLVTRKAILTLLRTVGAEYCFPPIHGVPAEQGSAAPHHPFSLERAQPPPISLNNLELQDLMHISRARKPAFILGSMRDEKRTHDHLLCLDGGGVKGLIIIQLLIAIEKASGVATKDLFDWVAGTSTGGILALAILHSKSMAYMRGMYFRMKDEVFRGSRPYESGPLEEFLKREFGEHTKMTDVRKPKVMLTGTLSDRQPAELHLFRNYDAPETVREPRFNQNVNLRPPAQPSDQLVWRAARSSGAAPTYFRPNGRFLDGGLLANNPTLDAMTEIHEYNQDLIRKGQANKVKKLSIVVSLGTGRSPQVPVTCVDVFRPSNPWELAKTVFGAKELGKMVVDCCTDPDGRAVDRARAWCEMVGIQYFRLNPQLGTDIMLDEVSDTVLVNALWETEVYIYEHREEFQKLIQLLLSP
The experiment in a line: hydrogen/deuterium exchange mass spectrometry. Format: binding.

Consider one compound from paper PMC5053890 (Bioorganic & medicinal chemistry, 2016).

`CCCCCCCCSCC(=O)C(F)(F)F` [Compound 3]: the “Average % Deuteration (Presence of OTFP)” value is, setting by setting: (peptide region 481-493) 27%; (peptide region 514-524) 48%; (peptide region 542-562) 51%; (peptide region 630-655) 48%; (peptide region 656-664) 49%; (peptide region 770-778) 43%.
